Test results from US20250066383A1, “PDE 7 MODULATOR COMPOUNDS” (Omeros Corporation, priority 2023, published 2025).

Experiments:
[1] = target: PDE7B (Homo sapiens (Human), UniProt Q9NP56); assay: PDE7B assay: inhibition of PDE7B hydrolysis of [3H]cAMP to [3H]AMP (scintillation proximity, yttrium silicate beads); type: biochemical; conditions: 16 nM [3H]cAMP, 30° C., 20 minutes; read-out: PDE 7B IC50
Experimental: (§1) PDE7A and PDE7B Assay. Compounds were tested for their activity by measuring the inhibition of PDE7A or PDE7B hydrolysis of [3H]cAMP to [3H]AMP. Generally, eight dilutions of compound were assayed in 50 mM Tris-HCl pH 7.5, 8.3 mM MgCl2, 0.5 mg/mL BSA, 1.7 mM EGTA, 16 nM [3H]cAMP, and 1% DMSO. PDE7A or PDE7B (typically 1-5 ng/mL) (BPS BioSciences, CA) is added to initiate the reaction. The reaction was incubated at 30° C. for 20 minutes. PDE7A and PDE7B hydrolysis was terminated by the addition of yttrium silicate beads (GE Healthcare, RPNQ0150) and counted on a Wallac Microbeta scintillation counter, 1-2 hours following the addition of the beads. Data was analyzed using XLfit […] from which ICso values were obtained.

[2] = target: PDE7A (Homo sapiens (Human), UniProt Q13946); assay: PDE7A assay: inhibition of PDE7A hydrolysis of [3H]cAMP to [3H]AMP (scintillation proximity, yttrium silicate beads); type: biochemical; conditions: 16 nM [3H]cAMP, 30° C., 20 minutes; read-out: PDE 7A IC50
Experimental: as §1

PDE7A, sequence (Q13946 whole entry): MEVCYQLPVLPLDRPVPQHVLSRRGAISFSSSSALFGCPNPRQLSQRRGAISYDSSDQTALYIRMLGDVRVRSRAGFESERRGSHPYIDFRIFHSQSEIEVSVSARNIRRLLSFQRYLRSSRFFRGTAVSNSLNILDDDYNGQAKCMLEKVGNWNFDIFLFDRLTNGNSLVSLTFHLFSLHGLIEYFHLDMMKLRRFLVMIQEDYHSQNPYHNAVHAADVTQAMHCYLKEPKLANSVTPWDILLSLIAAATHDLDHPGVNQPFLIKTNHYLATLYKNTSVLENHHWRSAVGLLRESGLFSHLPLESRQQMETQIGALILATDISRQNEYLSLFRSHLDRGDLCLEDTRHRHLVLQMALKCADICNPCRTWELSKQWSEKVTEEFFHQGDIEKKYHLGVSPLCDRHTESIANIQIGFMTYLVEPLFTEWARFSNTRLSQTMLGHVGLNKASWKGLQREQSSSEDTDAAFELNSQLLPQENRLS
PDE7B, sequence (Q9NP56 whole entry): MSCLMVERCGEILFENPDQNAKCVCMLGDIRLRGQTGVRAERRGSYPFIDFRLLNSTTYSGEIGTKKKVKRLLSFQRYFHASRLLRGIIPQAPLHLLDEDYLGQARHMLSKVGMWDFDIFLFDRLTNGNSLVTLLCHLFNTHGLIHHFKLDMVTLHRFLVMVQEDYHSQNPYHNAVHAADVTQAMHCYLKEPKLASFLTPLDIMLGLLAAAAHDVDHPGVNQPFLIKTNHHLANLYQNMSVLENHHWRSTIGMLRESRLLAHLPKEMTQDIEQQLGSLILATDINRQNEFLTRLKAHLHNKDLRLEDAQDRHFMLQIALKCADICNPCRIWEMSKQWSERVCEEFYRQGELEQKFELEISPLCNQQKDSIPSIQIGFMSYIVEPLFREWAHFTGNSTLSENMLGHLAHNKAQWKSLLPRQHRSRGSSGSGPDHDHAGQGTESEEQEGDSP

Row | IC50 [1] | IC50 [2] | SMILES
1 | 30 to 100 nM | 10 to 30 nM | Cc1nn(CC(C)C)c2sc(C(=O)N[C@H]3CC[C@H](N4CCN(C(=O)N(C)C)CC4)CC3)cc12 [II-19, N-((1r,4r)-4-(4-(dimethylcarbamo-yl)piperazin-1-yl)-cyclohexyl)-1-iso-butyl-3-methyl-1H-thieno[2,3-c]pyrazole-5-carboxamide]
2 | 100 to 500 nM | 100 to 500 nM | Cc1nn(-c2ccccc2)c2sc(C(=O)N[C@H]3CC[C@H](N4CCOCC4)CC3)cc12 [Compound I-8, 3-methyl-N-((1r,4r)-4-morpholinocyclohex-yl)-1-phenyl-1H-thieno [2,3-c]pyrazole-5-carboxamide]
3 | < 10 nM | < 10 nM | Cc1nn(C2CCC(F)(F)CC2)c2sc(C(=O)N[C@H]3CC[C@H](N4CCN(C(C)C)CC4)CC3)cc12 [II-10, 1-(4,4-difluorocyclo-hexyl)-N-((1r,4r)-4-(4-isopropylpiper-azin-1-yl)cyclohex-yl)-3-methyl-1H-thieno[2,3-c]pyra-zole-5-carboxamide]
4 | < 10 nM | < 10 nM | CC(=O)N1CCN([C@H]2CC[C@H](NC(=O)c3cc4c(C)nn(C5CCC(F)(F)CC5)c4s3)CC2)CC1 [II-9, N-((1r,4r)-4-(4-acet-ylpiperazin-1-yl)-cyclohexyl)-1-(4,4-difluorocyclohexyl)-3-methyl-1H-thieno [2,3-c]pyrazole-5-carboxamide]
5 | 10 to 30 nM | < 10 nM | Cc1nn(C2CCC(F)(F)CC2)c2sc(C(=O)N[C@H]3CC[C@H](N4CCN(CC(F)(F)F)CC4)CC3)cc12 [II-12, 1-(4,4-difluorocyclo-hexyl)-N-((1r,4r)-4-(4-(2,2-trifluoroeth-yl)piperazin-1-yl)-cyclohexyl)-3-meth-yl-1H-thieno[2,3-c] pyrazole-5-carbox-amide]
6 | 30 to 100 nM | 10 to 30 nM | CC(=S)N1CCN([C@H]2CC[C@H](NC(=O)c3cc4c(C)nn(CC(C)C)c4s3)CC2)CC1 [II-23, N-((1r,4r)-4-(4-ethanethioylpiperazin-1-yl)cyclohexyl)-1-isobutyl-3-methyl-1H-thieno[2,3-c]pyrazole-5-carboxamide]
7 | 100 to 500 nM | 30 to 100 nM | CC(=O)N1CCN([C@H]2CC[C@H](NC(=O)c3cc4c(C)nn(C5C[C@@H](C)O[C@@H](C)C5)c4s3)CC2)CC1 (stereo partly drawn) [II-2, N-((1r,4r)-4-(4-acetylpiperazin-1-yl)-cyclohexyl)-1-((2r,6s)-2,6-dimeth-yltetrahydro-2H-pyr-ran-4-yl)-3-methyl-1H-thieno[2,3-c]pyr-azole-5-carboxamide]
8 | < 10 nM | < 10 nM | CC(=O)N1CCN([C@H]2CC[C@H](NC(=O)c3cc4c(C)nn(CC(C)(C)C)c4s3)CC2)CC1 [II-37, N-((1r,4r)-4-(4-acet-ylpiperazin-1-yl)-cyclohexyl)-3-meth-yl-1-neopentyl-1H-thieno[2,3-c]pyr-azole-5-carboxamide]
9 | 10 to 30 nM | 10 to 30 nM | Cc1nn(C2CCC(F)(F)CC2)c2sc(C(=O)N[C@H]3CC[C@H](N4CCN(C5CC5)CC4)CC3)cc12 [II-15, N-((1r,4r)-4-(4-cyclo-propylpiperazin-1-yl)cyclohexyl)-1-(4,4-difluorocyclohexyl)-3-methyl-1H-thieno [2,3-c]pyrazole-5-carboxamide]
10 | 10 to 30 nM | 10 to 30 nM | Cc1nn(-c2ccccc2Cl)c2sc(C(=O)N[C@H]3CC[C@H](N4CC(OC(F)F)C4)CC3)cc12 [Compound I-7, 1-(2-chlorophenyl)-N-((1r,4r)-4-(3-(difluoro-methoxy)azetidin-1-yl)-cyclohexyl)-3-methyl-1H-thieno[2,3-c]pyr-azole-5-carboxamide]
11 | 30 to 100 nM | 10 to 30 nM | Cc1nn(CC(C)C)c2sc(C(=O)N[C@H]3CC[C@H](N4CCN(C5CC5)CC4)CC3)cc12 [II-6, N-((1r,4r)-4-(4-cyclo-propylpiperazin-1-yl)-cyclohexyl)-1-isobut-yl-3-methyl-1H-thieno[2,3-c]pyrazole-5-carboxamide]
12 | < 10 nM | < 10 nM | Cc1nn(C2CCC(F)(F)CC2)c2sc(C(=O)N[C@H]3CC[C@H](N4CC(F)(F)C4)CC3)cc12 [II-17, N-((1r,4r)-4-(3,3-difluoroazetidin-1-yl)cyclohexyl)-1-(4,4-difluorocyclohexyl)-3-methyl-1H-thieno [2,3-c]pyrazole-5-carboxamide]
13 | 30 to 100 nM | 30 to 100 nM | Cc1nn(CC(C)C)c2sc(C(=O)N[C@H]3CC[C@H](N4CCN(CC(F)(F)F)CC4)CC3)cc12 [II-7, 1-isobutyl-3-methyl-N-((1r,4r)-4-(4-(2,2,2-trifluoroethyl)piper-azin-1-yl)cyclohexyl)-1H-thieno[2,3-c]pyr-azole-5-carboxamide]
14 | < 10 nM | < 10 nM | Cc1nn(CC(C)(C)C)c2sc(C(=O)N[C@H]3CC[C@H](N4CCOCC4)CC3)cc12 [II-32, 3-methyl-N-((1r,4r)-4-morpholinocyclo-hexyl)-1-neopentyl-1H-thieno[2,3-c]pyr-azole-5-carboxamide]
15 | 100 to 500 nM | 100 to 500 nM | Cc1nn(CC(C)(C)C)c2sc(C(=O)Nc3ccc(N4CCOCC4)c(C#N)c3)cc12 [II-40, N-(3-cyano-4-mor-pholinophenyl)-3-methyl-1-neopentyl-1H-thieno[2,3-c]pyr-azole-5-carboxamide]
16 | 10 to 30 nM | 30 to 100 nM | Cc1nn(CC(C)C)c2sc(C(=O)N[C@H]3CC[C@H](N4CCN(C(C)C)CC4)CC3)cc12 [II-5, 1-isobutyl-N-((1r,4r)-4-(4-isopropylpiper-azin-1-yl)cyclohexyl)-3-methyl-1H-thieno [2,3-c]pyrazole-5-carboxamide]
17 | 10 to 30 nM | < 10 nM | COC1CN([C@H]2CC[C@H](NC(=O)c3cc4c(C)nn(CC(C)(C)C)c4s3)CC2)C1 [II-45, N-((1r,4r)-4-(3-methoxyazetidin-1-yl)cyclohexyl)-3-methyl-1-neopentyl-1H-thieno[2,3-c]pyr-azole-5-carboxamide]
18 | < 10 nM | < 10 nM | Cc1nn(CC(C)(C)C)c2sc(C(=O)N[C@H]3CC[C@H](N4CC(F)(F)C4)CC3)cc12 [II-30, N-((1r,4r)-4-(3,3-difluoroazetidin-1-yl)cyclohexyl)-3-methyl-1-neopentyl-1H-thieno[2,3-c]pyr-azole-5-carboxamide]
19 | 10 to 30 nM | 10 to 30 nM | Cc1nn(CC(C)(C)C)c2sc(C(=O)Nc3ccc(N4CCOCC4)nc3)cc12 [II-35, 3-methyl-N-(6-morpholinopyridin-3-yl)-1-neopentyl-1H-thieno[2,3-c]pyr-azole-5-carboxamide]
20 | < 10 nM | < 10 nM | Cc1nn(CC(C)(C)C)c2sc(C(=O)N[C@H]3CC[C@H](N4CCN(C(C)C)CC4)CC3)cc12 [II-31, N-((1r,4r)-4-(4-iso-propylpiperazin-1-yl)cyclohexyl)-3-methyl-1-neopentyl-1H-thieno[2,3-c]pyr-azole-5-carboxamide]
21 | < 10 nM | < 10 nM | Cc1nn(C2CCC(F)(F)CC2)c2sc(C(=O)N[C@H]3CC[C@H](N4CCC(F)(F)C4)CC3)cc12 [II-26, 1-(4,4-difluorocyclo-hexyl)-N-((1r,4r)-4-(3,3-difluoropyrrol-idin-1-yl)cyclohexyl)-3-methyl-1H-thieno [2,3-c]pyrazole-5-carboxamide]
22 | < 10 nM | < 10 nM | Cc1nn(CC(C)(C)C)c2sc(C(=O)N[C@H]3CC[C@H](N4CC(C#N)C4)CC3)cc12 [II-36, N-((1r,4r)-4-(3-cyanoazetidin-1-yl)-cyclohexyl)-3-meth-yl-1-neopentyl-1H-thieno[2,3-c]pyr-azole-5-carboxamide]
23 | 30 to 100 nM | 30 to 100 nM | CC(=O)N1CCN([C@H]2C[C@H](NC(=O)c3cc4c(C)nn(-c5ccccc5Cl)c4s3)C2)CC1 [Compound I-5, N-((1r,3r)-3-(4-acetyl-piperazin-1-yl)cyclo-butyl)-1-(2-chlorophen-yl)-3-methyl-1H-thieno [2,3-c]pyrazole-5-carboxamide]
24 | < 10 nM | 10 to 30 nM | Cc1nn(C2CCC(F)(F)CC2)c2sc(C(=O)N[C@H]3CC[C@H](N4CC(OC(F)F)C4)CC3)cc12 [II-41, 1-(4,4-difluorocyclo-hexyl)-N-((1r,4r)-4-(3-(difluorometh-oxy)azetidin-1-yl)-cyclohexyl)-3-methyl-1H-thieno [2,3-c]pyrazole-5-carboxamide]
25 | 30 to 100 nM | 30 to 100 nM | Cc1nn(C2CCC(F)(F)CC2)c2sc(C(=O)N[C@H]3C[C@@H](N4CCC(F)(F)C4)C3)cc12 [II-39, 1-(4,4-difluorocyclo-hexyl)-N-((1s,3s)-3-(3,3-difluoropyrrol-idin-1-yl)cyclobutyl)-3-methyl-1H-thieno [2,3-c]pyrazole-5-carboxamide]

Row | SMILES | IC50 [1] | IC50 [2]
26 | Cc1nn(CC(C)(C)C)c2sc(C(=O)N[C@H]3CC[C@H](N4CCN(CC(F)F)CC4)CC3)cc12 [II-28, N-((1r,4r)-4-(4-(2,2-difluoroethyl)piper-azin-1-yl)cyclohex-yl)-3-methyl-1-neo-pentyl-1H-thieno [2,3-c]pyrazole-5-carboxamide] | 10 to 30 nM | 10 to 30 nM
27 | Cc1nn(CC(C)C)c2sc(C(=O)N[C@H]3CC[C@H](N4CCN(CC(F)F)CC4)CC3)cc12 [II-8, N-((1r,4r)-4-(4-(2,2-difluoroethyl)piper-azin-1-yl)cyclohexyl)-1-isobutyl-3-methyl-1H-thieno[2,3-c]pyr-azole-5-carboxamide] | 30 to 100 nM | 30 to 100 nM
